Measurements from patent publication US20060251714A1, “Pharmaceutical formulations of amyloid inhibiting compounds” (priority 2005, published 2006).

Key:
[1] = Example 12: Phase II pilot study in CAA patients with lobar cerebral hemorrhage, plasma pharmacokinetics; type: in vivo, human; settings: for AUC(0-inf) / Cmax / AUC(0-t): human, plasma, oral; for AUC(0-inf): mean, only patients with estimable elimination rate constant
From the text: (§1) In the following examples and elsewhere herein, terms are as defined below. The pharmacokinetic parameters were derived by non-compartmental analysis using WinNonlin® (Pharsight Corporation, Mountain View, Calif.) or SAS® for Windows® (SAS Institute Inc., Cary, N.C.).
AUCss—the area under the plasma concentrations versus time curve during a dosing interval at steady state.
A Phase II pilot study of the safety, tolerability and pharmacokinetics of 3-APS (formulation of Table 5 above) in patients with lobar cerebral hemorrhage related to Cerebral Amyloid Angiopathy (CAA). For doses at multiples of 50 mg, multiple 50 mg tables are administered. A multicenter, randomized, double-blind, and parallel designed study is conducted in the United States with 3-APS in patients who survived a lobar cerebral hemorrhage related to cerebral amyloid angiopathy (CAA). The main objective of this study is to assess the safety and tolerability of 3-APS and to characterize its pharmacokinetics in CAA patients.
A total of 24 patients who have had lobar cerebral hemorrhage are randomized to receive in a 1:1:1 ratio 3-APS 50, 100 or 150 mg BID for 12 weeks. A lumbar puncture is performed on an optional basis at Weeks 0 and 12 to assess the pharmacological effect of 3-APS on Aβ40, Aβ42 and tau concentrations in cerebrospinal fluid (CSF) and to measure the drug concentration in the CSF. Rating instruments (NIHSS, Barthel Index, ADAS-cog and EXIT25) are administered at Weeks 0 and 12 to evaluate the neurological and cognitive functions as well as the daily functioning.
For pharmacokinetic investigations, blood samples are collected from each patient prior to dosing and at specified time points through 12 h post-dose after the first dose (Week 0) and the last dose (Week 12). Blood samples are also collected prior to the first dose of the day during Week 2, 4 and 8 visits. CSF samples are obtained by lumbar puncture prior to dosing on Week 0 and approximately 5 hours post-dose on Week 12.

[2] = Example 7 Part I: single rising oral doses of NC-758, plasma pharmacokinetics in healthy young and elderly male volunteers; type: in vivo, human; settings: for AUC∞: mean, only subjects with estimable elimination rate constant
From the text: as §1
Cmax —the maximum observed plasma concentration.
Tmax—the time of occurrence of Cmax.
AUC0-t—the area under the plasma concentration versus time curve from time zero to the last sampling time at which concentrations were at or above the limit of quantification, calculated by the linear trapezoidal rule.
AUC∞—the area under the plasma concentrations versus time curve from time zero to infinity, calculated from AUC0-t+(Clast/λz), where Clast is the last observed quantifiable concentration and λz is the apparent terminal rate constant.
t1/2—the apparent terminal half-life, calculated from Ln2/λz.
Part I—The pharmacokinetic profile and the effect of food on single rising oral doses of 3-APS free acid, (modified-release enteric-coated tablet, as described in Table 3 above, hereinafter “NC-758”) in healthy male young (18-45 years) volunteers is determined. For doses at multiples of 100 mg, multiple 100 mg tables are administered. The pharmacokinetics of a single oral dose of NC-758 is also determined in a group of healthy male elderly (≧55 years old) volunteers. The test is a randomized, double-blind, placebo-controlled study to assess the pharmacokinetic profile of 4 single rising oral doses of NC-758 in healthy young (18-45 years) male subjects. Blood samples are collected during 24 h following dosing. Plasma concentrations of 3-APS are determined using a validated LC-MS/MS method.

[3] = Hygroscopicity of the drug substance; type: physicochemical
Protocol: Furthermore, the non-hygroscopic nature of the acid form makes it desirable as active pharmaceutical ingredient. To further protect against any possible gastrointestinal intolerance that could result from the acid form, the tablets are enteric-coated and a modified-release agent is added to control any rapid release of the drug in the stomach and the intestine, respectively.

[4] = Example 13: single 150 mg dose of Modified-Release Coated Tablets in healthy elderly male volunteers, plasma pharmacokinetics; type: in vivo; settings: human, single oral 150 mg (3 × 50 mg Table 5 tablets), elderly male subjects; for AUC(0-inf) / Cmax / AUC(0-t): male, po, 150 mg; for AUC(0-t): read-out: AUC0-Tlast
Protocol: as §1
For the 150 mg dose, three 50 mg tables are administered.

[5] = Example 9 Part I: single oral doses of NC-758-1 in healthy elderly volunteers, plasma pharmacokinetics; type: in vivo, human; settings: elderly male and female subjects, fasted; for AUC∞: mean, only subjects with estimable elimination rate constant
From the text: as §1
Part I—The pharmacokinetic profile and the effect of food on single oral doses of 3-APS free acid (modified-release enteric-coated tablet as described in Table 5 above, hereinafter “NC-758-1”) in healthy male and female elderly (≧55 years) volunteers. For doses at multiples of 50 mg, multiple 50 mg tables are administered. The test is an open label, three-period crossover study to assess the pharmacokinetic profile of 3 single oral doses of NC-758-1 in healthy elderly (≧55 years) male and female subjects. The blood samples are collected during 24 h following dosing. Plasma concentrations of 3-APS are determined using a validated LC-MS/MS method.

[6] = 200 mg dose, see Tables 9 and 10
[7] = single oral 100 mg NC-758 (Table 3 tablet), young (18-45 years) male subjects, fasted, n = 5, mean
[8] = single oral 200 mg NC-758 (Table 3 tablet), elderly (>55 years) male subjects, fasted, n = 6, mean
[9] = single oral 200 mg NC-758 (Table 3 tablet), young (18-45 years) male subjects, fasted, n = 6, mean
[10] = single oral 300 mg NC-758 (Table 3 tablet), young (18-45 years) male subjects, fasted, n = 5, mean
[11] = single oral 400 mg NC-758 (Table 3 tablet), young (18-45 years) male subjects, fasted, n = 3, mean
[12] = Fasting Conditions, n = 11, mean
[13] = single oral 50 mg NC-758-1 (Table 5 tablet), n = 9, mean
[14] = single oral 100 mg NC-758-1 (Table 5 tablet), n = 9, mean
[15] = single oral 150 mg NC-758-1 (Table 5 tablet), n = 8, mean

NCCCS(=O)(=O)O [3-APS, 3-amino-1-propanesulfonic acid]
Tmax ([1]; 50 mg BID (Table 5 tablet), Week 0 (single dose), n = 8, median): 4.5 h | Tmax ([1]; 50 mg BID (Table 5 tablet), Week 12 (repeated), n = 8, median): 4.4 h | Tmax ([1]; 100 mg BID (Table 5 tablet), Week 12 (repeated), n = 6, median): 5.15 h | Tmax ([1]; 150 mg BID (Table 5 tablet), Week 12 (repeated), n = 3, median): 5.4 h | AUC(0-inf) ([1]; 50 mg BID (Table 5 tablet), Week 0 (single dose)): 1640 ng·h/mL | Cmax ([1]; 50 mg, 50 mg BID (Table 5 tablet), Week 0 (single dose), n = 8, mean): 346 ng/mL | AUC(0-t) ([1]; 50 mg, 50 mg BID (Table 5 tablet), Week 0 (single dose), n = 8, mean, read-out: AUC0-t): 1280 ng·h/mL | Cmax ([1]; 50 mg, 50 mg BID (Table 5 tablet), Week 12 (repeated), n = 8, mean): 171 ng/mL | AUC(0-t) ([1]; 50 mg, 50 mg BID (Table 5 tablet), Week 12 (repeated), n = 8, mean, read-out: AUC0-t (AUCss for Week 12)): 947 ng·h/mL | AUC(0-inf) ([1]; 100 mg BID (Table 5 tablet), Week 0 (single dose)): 2780 ng·h/mL | Cmax ([1]; 100 mg, 100 mg BID (Table 5 tablet), Week 0 (single dose), n = 7, mean): 552 ng/mL | AUC(0-t) ([1]; 100 mg, 100 mg BID (Table 5 tablet), Week 0 (single dose), n = 7, mean, read-out: AUC0-t): 2630 ng·h/mL | Cmax ([1]; 100 mg, 100 mg BID (Table 5 tablet), Week 12 (repeated), n = 6, mean): 806 ng/mL | AUC(0-t) ([1]; 100 mg, 100 mg BID (Table 5 tablet), Week 12 (repeated), n = 6, mean, read-out: AUC0-t (AUCss for Week 12)): 3700 ng·h/mL | AUC(0-inf) ([1]; 150 mg BID (Table 5 tablet), Week 0 (single dose)): 3690 ng·h/mL | Cmax ([1]; 150 mg, 150 mg BID (Table 5 tablet), Week 0 (single dose), n = 5, mean): 857 ng/mL | AUC(0-t) ([1]; 150 mg, 150 mg BID (Table 5 tablet), Week 0 (single dose), n = 5, mean, read-out: AUC0-t): 3900 ng·h/mL | Cmax ([1]; 150 mg, 150 mg BID (Table 5 tablet), Week 12 (repeated), n = 3, mean): 1030 ng/mL | AUC(0-t) ([1]; 150 mg, 150 mg BID (Table 5 tablet), Week 12 (repeated), n = 3, mean, read-out: AUC0-t (AUCss for Week 12)): 6750 ng·h/mL | AUC0-t greater in elderly subjects compared to young subjects [2, 6]: approximately 70% | Cmax greater in elderly subjects compared to young subjects [2, 6]: approximately 70% | AUC∞ ([2]; single oral 100 mg NC-758 (Table 3 tablet), young (18-45 years) male subjects, fasted): 1421 ng·h/mL | AUC0-Tlast [2, 7]: 1392 ng·h/mL | Cmax [2, 7]: 410 ng/mL | AUC0-Tlast [2, 8]: 4882 ng·h/mL | Cmax [2, 8]: 1094 ng/mL | AUC∞ ([2]; single oral 200 mg NC-758 (Table 3 tablet), young (18-45 years) male subjects, fasted): 2492 ng·h/mL | AUC0-Tlast [2, 9]: 2898 ng·h/mL | Cmax [2, 9]: 661 ng/mL | AUC∞ ([2]; single oral 300 mg NC-758 (Table 3 tablet), young (18-45 years) male subjects, fasted): 4464 ng·h/mL | AUC0-Tlast [2, 10]: 3999 ng·h/mL | Cmax [2, 10]: 904 ng/mL | AUC0-Tlast [2, 11]: 15966 ng·h/mL | Cmax [2, 11]: 5367 ng/mL | Tmax ([2]; single oral 400 mg NC-758 (Table 3 tablet), young (18-45 years) male subjects, fasted, n = 3, median): 2 h | hygroscopic nature [3]: non-hygroscopic | Tmax ([4]; Fed Conditions, n = 10, median): 5.5 h | AUC(0-inf) [4, 12]: 3280 ng·h/mL | Cmax [4, 12]: 772 ng/mL | AUC(0-t) [4, 12]: 3210 ng·h/mL | AUC(0-inf) ([4]; Fed Conditions, n = 10, mean): 5310 ng·h/mL | Cmax ([4]; Fed Conditions, n = 10, mean): 980 ng/mL | AUC(0-t) ([4]; Fed Conditions, n = 10, mean): 5160 ng·h/mL | AUC∞ ([5]; single oral 50 mg NC-758-1 (Table 5 tablet)): 1566 ng·h/mL | AUC(0-t) [5, 13]: 1537 ng·h/mL | Cmax [5, 13]: 469 ng/mL | AUC∞ ([5]; single oral 100 mg NC-758-1 (Table 5 tablet)): 2871 ng·h/mL | AUC(0-t) [5, 14]: 3128 ng·h/mL | Cmax [5, 14]: 745 ng/mL | AUC∞ ([5]; single oral 150 mg NC-758-1 (Table 5 tablet)): 4497 ng·h/mL | AUC(0-t) [5, 15]: 5303 ng·h/mL | Cmax [5, 15]: 1029 ng/mL
